Results taken from article PMC12910644 (Journal of Medicinal Chemistry, 2026).

How the values were obtained:
CK1γ1 [1] = target: T1, CK1γ1 (Homo sapiens, UniProt Q9HCP0); assay: CK1γ1 NanoBRET assay with tracer 23, intact cells; assay type: cell-based; settings: intact HEK293 cells, N = 1
CK1γ2 [2] = target: T2, CK1γ2 (Homo sapiens, UniProt P78368); assay: CK1γ2 NanoBRET assay with tracer 23, intact cells; assay type: cell-based; settings: intact HEK293 cells, N = 1
CK1γ2 [3] = target: T2, CK1γ2; assay: Eurofins radiometric enzymatic assay CK1γ2; assay type: biochemical
CK1γ3 [4] = target: T3, CK1γ3 (Homo sapiens, UniProt Q9Y6M4); assay: Eurofins radiometric enzymatic assay CK1γ3; assay type: biochemical; settings: read-out: enzymatic IC50 CK1γ3, ATP at Km, N = 1
Target sequence in this assay (Q9Y6M4 33-362): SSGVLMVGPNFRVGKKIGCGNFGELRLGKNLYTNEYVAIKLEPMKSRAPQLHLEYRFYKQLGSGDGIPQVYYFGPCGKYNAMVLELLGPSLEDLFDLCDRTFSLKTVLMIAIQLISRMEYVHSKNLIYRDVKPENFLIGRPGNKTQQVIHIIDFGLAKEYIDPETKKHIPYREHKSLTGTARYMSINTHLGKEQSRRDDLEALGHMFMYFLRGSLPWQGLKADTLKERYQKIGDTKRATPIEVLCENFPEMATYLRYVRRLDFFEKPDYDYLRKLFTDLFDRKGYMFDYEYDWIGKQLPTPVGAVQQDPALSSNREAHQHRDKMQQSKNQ

CK1γ1 [5] = target: T1, CK1γ1; assay: Eurofins radiometric enzymatic assay CK1γ1; assay type: biochemical
CK1γ3 [6] = target: T3, CK1γ3; assay: CK1γ3 NanoBRET assay with tracer 23, intact cells; assay type: cell-based; settings: intact HEK293 cells, N = 1
Target sequence in this assay (Q9Y6M4 whole entry): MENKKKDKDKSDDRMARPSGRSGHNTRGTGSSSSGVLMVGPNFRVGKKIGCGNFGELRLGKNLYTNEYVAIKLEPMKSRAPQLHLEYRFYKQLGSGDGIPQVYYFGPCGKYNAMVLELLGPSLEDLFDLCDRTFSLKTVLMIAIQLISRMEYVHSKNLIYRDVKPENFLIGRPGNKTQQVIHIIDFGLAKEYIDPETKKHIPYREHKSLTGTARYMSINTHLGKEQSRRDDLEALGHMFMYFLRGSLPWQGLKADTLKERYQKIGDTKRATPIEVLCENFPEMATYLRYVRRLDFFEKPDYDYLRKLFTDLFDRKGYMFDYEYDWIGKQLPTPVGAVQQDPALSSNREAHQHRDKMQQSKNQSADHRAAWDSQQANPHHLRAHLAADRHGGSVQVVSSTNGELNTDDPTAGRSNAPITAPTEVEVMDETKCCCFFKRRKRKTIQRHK

[7] = test system: LRP6 phosphorylation at T1479; assay: Western blot of LRP6 phosphorylation in HEK293 cells; assay type: cell-based, human; settings: 5 μM, WNT3A and R-Spondin-1, 2 h
HEK293 cells = assay: CellTiter-Glo HEK293 cell viability assay; assay type: cell-based, human; settings: 10 μM for 24 or 48 h
Dynamic light scattering = assay type: physicochemical; settings: HBS buffer, 2% DMSO, 25 °C
panel of 192 kinases [8] = target: panel of 192 kinases (Homo sapiens, UniProt P78368); assay: K192 NanoBRET kinase selectivity panel; assay type: cell-based; settings: read-out: %Fractional Occupancy
MOK = target: T4, MOK (Homo sapiens, UniProt Q9UQ07); assay: MOK NanoBRET assay; assay type: cell-based
T4 sequence (Q9UQ07 1-419): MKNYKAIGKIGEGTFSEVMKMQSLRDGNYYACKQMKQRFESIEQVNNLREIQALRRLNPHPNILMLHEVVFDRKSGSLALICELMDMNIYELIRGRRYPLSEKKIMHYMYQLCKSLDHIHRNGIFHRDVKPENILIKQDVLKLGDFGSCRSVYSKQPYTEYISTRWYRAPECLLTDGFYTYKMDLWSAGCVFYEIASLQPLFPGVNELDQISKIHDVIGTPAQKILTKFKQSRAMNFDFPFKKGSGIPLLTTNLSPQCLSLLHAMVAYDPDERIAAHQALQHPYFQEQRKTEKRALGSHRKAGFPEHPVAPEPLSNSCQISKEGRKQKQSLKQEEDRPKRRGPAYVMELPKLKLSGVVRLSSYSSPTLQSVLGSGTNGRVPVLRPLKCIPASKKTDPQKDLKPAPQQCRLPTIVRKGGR

CLK4 = CLK4 (Homo sapiens, UniProt Q9HAZ1); assay: CLK4 NanoBRET assay
panel of 192 kinases [9] = target: panel of 192 kinases (Homo sapiens, UniProt Q9HAZ1); assay: K192 NanoBRET kinase selectivity panel; assay type: cell-based; settings: read-out: %Fractional Occupancy
[10] = read-out: NB IC50 CK1γ3, tracer 23
[11] = read-out: NB IC50 CK1γ1, tracer 23
[12] = read-out: NB IC50 CK1γ2, tracer 23

T2 sequence (P78368 whole entry): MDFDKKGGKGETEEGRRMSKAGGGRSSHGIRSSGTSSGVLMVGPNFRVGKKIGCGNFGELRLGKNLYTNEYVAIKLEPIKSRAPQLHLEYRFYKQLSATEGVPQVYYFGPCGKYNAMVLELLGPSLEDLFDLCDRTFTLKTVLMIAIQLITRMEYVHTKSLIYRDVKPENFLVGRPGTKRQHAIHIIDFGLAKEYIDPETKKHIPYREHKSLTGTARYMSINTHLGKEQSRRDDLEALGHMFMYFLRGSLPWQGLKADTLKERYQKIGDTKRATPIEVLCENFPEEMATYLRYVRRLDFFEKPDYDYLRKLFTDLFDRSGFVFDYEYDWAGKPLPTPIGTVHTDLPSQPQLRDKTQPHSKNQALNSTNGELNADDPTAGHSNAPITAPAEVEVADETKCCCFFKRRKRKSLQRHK
T1 sequence (Q9HCP0 whole entry): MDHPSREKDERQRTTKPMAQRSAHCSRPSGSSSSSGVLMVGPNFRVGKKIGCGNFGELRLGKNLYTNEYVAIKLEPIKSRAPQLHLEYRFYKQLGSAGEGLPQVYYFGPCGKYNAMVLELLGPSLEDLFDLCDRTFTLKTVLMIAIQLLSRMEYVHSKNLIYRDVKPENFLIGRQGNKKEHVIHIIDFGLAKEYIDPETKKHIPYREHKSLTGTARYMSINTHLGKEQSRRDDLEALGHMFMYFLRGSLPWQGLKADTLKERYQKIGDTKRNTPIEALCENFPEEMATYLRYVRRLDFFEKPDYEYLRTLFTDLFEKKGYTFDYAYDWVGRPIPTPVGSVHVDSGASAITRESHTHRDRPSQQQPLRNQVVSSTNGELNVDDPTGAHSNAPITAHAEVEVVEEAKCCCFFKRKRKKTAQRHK
Sequence of panel of 192 kinases (Homo sapiens, UniProt P78368) (P78368 whole entry): as the sequence (P78368 whole entry) above
Sequence of panel of 192 kinases (Homo sapiens, UniProt Q9HAZ1) (Q9HAZ1 whole entry): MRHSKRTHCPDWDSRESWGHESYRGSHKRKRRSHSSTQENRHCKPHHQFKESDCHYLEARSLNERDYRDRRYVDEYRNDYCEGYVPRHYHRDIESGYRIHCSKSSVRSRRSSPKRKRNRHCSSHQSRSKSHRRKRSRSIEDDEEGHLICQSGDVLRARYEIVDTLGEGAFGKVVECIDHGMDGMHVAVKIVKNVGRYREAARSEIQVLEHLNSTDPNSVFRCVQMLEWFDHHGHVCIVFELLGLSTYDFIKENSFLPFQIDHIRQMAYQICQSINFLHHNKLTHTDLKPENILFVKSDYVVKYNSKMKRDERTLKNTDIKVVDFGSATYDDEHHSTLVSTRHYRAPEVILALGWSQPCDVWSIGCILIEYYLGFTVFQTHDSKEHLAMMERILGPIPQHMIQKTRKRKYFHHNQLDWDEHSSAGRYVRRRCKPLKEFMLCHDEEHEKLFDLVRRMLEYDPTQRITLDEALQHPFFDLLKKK
Sequence of CLK4 (Q9HAZ1 whole entry): as above

SMILES | IC50 (CK1γ1 [1]; NB IC50 CK1γ1, tracer 23) | IC50 (CK1γ2 [2]; NB IC50 CK1γ2, tracer 23) | IC50 (CK1γ2 [3]) | IC50 (CK1γ3 [4]) | IC50 (CK1γ1 [5]) | IC50 (CK1γ3 [6]; NB IC50 CK1γ3, tracer 23) | further results
COc1cc(N2CCOCC2)ccc1Nc1nc2ccc(C#N)cc2[nH]1 [Compound 5, 2-((2-Methoxy-4-morpholinophenyl)amino)-1H-benzo[d]imidazole-6-carbonitrile] | > 30000 nM | > 30000 nM | 4170 nM | 2750 nM | 5520 nM | > 30000 nM | LRP6 phosphorylation at T1479 [7]: did not occur
N#Cc1ccc2nc(Nc3ccc(N4CCOCC4)c(Cl)c3)[nH]c2c1 [Compound 14, 2-((3-Chloro-4-morpholinophenyl)amino)-1H-benzo[d]imidazole-6-carbonitrile] | 180 nM | 180 nM | – | 958 nM | – | – | HEK293 cell viability (CellTiter-Glo) (HEK293 cells): did not impact cell viability; aqueous solubility in DLS (Dynamic light scattering): good aqueous solubility; receptor occupancy at 1 µM (panel of 192 kinases [8]): 74%; IC50 (MOK): > 5000 nM
N#Cc1ccc2nc(Nc3ccc(N4CCOCC4)c(Br)c3)[nH]c2c1 [Compound 15, 2-((3-Bromo-4-morpholinophenyl)amino)-1H-benzo[d]imidazole-6-carbonitrile] | 580 nM | 110 nM | – | 700 nM | – | 110 nM | –
Cc1ccc2nc(NC(=O)CSc3nc4c(c(=O)n3-c3ccc(F)cc3)SCC4)sc2c1 [IWP-3, reference compound] | – | – | – | – | – | – | IC50 (CK1γ3 [6]; [10]): > 30000 nM; IC50 (CK1γ1 [1]; [11]): > 30000 nM; IC50 (CK1γ2 [2]; [12]): > 30000 nM
Nc1nccc(-c2c(-c3ccc(F)cc3)ncn2C2CCCCC2)n1 [PF-670462, reference compound] | – | – | – | – | – | – | IC50 (CK1γ3 [6]; [10]): > 30000 nM; IC50 (CK1γ1 [1]; [11]): > 30000 nM; IC50 (CK1γ2 [2]; [12]): > 30000 nM

Now from value to molecule, other results behind:

IC50 (CK1γ1 [1]; NB IC50 CK1γ1, tracer 23) | IC50 (CK1γ2 [2]; NB IC50 CK1γ2, tracer 23) | IC50 (CK1γ2 [3]) | IC50 (CK1γ3 [4]) | IC50 (CK1γ1 [5]) | IC50 (CK1γ3 [6]; NB IC50 CK1γ3, tracer 23) | SMILES | further results
910 nM | 920 nM | 81 nM | 1300 nM | 430 nM | – | N#Cc1ccc2nc(Nc3ccc(N4CCOCC4)cc3)[nH]c2c1 [Compound 4, 2-((4-morpholinophenyl)amino)-1H-benzo[d]imidazole-6-carbonitrile] | –
980 nM | 770 nM | 34 nM | 656 nM | 212 nM | – | N#Cc1ccc2nc(Nc3ccc(N4CCOCC4)c(F)c3)[nH]c2c1 [Compound 9, 2-((3-Fluoro-4-morpholinophenyl)amino)-1H-benzo[d]imidazole-6-carbonitrile] | –
1400 nM | 780 nM | 34 nM | – | 120 nM | 1350 nM | N#Cc1ccc2nc(Nc3ccc(N4CCOCC4)c(C(F)(F)F)c3)[nH]c2c1 [Compound 10, 2-((4-Morpholino-3-(trifluoromethyl)phenyl)amino)-1H-benzo[d]imidazole-6-carbonitrile] | –
920 nM | – | 25 nM | 976 nM | 121 nM | 3300 nM | N#Cc1ccc2nc(Nc3cc(F)c(N4CCOCC4)c(F)c3)[nH]c2c1 [Compound 11, 2-((3,5-Difluoro-4-morpholinophenyl)amino)-1H-benzo[d]imidazole-6-carbonitrile] | –
380 nM | 250 nM | – | 475 nM | – | 300 nM | N#Cc1ccc2[nH]c(Nc3ccc(N4CCCCC4)c(Cl)c3)nc2c1 [Compound 20, 2-((3-Chloro-4-(piperidin-1-yl)phenyl)amino)-1H-benzo[d]imidazole-5-carbonitrile] | –
170 nM | 220 nM | – | 431 nM | – | 180 nM | CN1CCN(c2ccc(Nc3nc4ccc(C#N)cc4[nH]3)cc2Cl)CC1 [Compound 21, 2-((3-Chloro-4-(4-methylpiperazin-1-yl)phenyl)amino)-1H-benzo[d]imidazole-6-carbonitrile] | IC50 (CLK4): 570 nM; receptor occupancy at 1 µM (panel of 192 kinases [9]): 49%
